Test results taken from article PMC13295013 (Nature chemical biology, 2026).
Values belong to the compound of their own block, whether it stands above or below them.

What was measured:
Type in all cases: cell-based
[1] = tested on: pMek levels in CIAR-293 cells; assay: pMek levels in CIAR-293 cells treated with A115 or DMSO; conditions: A115 1 h
[2] = tested on: pErk levels in Mia PaCa-2 cells; assay: LXH-254 titration, pErk western blot, Mia PaCa-2 cells; conditions: at 10–50 μM LXH-254
ARaf:CRaf heterodimers = ARaf:CRaf heterodimers (Homo sapiens, UniProt P04049+P10398); assay: Co-immunoprecipitation of ARaf with CRaf in MiaPaCa-2 cells treated with LXH-254; conditions: Mia PaCa-2 cells
Sequence of ARaf:CRaf heterodimers (P10398 whole entry): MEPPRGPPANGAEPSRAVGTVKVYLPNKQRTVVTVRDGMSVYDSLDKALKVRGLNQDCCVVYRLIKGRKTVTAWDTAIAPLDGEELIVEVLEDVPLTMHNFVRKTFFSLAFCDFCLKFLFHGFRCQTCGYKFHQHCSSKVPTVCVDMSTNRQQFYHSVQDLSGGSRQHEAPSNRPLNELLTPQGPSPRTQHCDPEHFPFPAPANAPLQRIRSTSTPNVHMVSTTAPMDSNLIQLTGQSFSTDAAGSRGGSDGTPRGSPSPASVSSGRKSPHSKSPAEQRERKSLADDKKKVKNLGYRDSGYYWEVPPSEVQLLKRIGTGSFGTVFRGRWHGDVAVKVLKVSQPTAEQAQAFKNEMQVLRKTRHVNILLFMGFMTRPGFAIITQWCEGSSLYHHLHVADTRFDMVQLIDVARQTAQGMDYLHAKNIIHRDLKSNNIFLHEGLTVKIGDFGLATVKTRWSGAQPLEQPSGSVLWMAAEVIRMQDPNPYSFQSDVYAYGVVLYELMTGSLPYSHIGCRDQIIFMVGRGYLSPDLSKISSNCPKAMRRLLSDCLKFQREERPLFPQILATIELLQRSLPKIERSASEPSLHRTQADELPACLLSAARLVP
Sequence of ARaf:CRaf heterodimers (P04049 whole entry): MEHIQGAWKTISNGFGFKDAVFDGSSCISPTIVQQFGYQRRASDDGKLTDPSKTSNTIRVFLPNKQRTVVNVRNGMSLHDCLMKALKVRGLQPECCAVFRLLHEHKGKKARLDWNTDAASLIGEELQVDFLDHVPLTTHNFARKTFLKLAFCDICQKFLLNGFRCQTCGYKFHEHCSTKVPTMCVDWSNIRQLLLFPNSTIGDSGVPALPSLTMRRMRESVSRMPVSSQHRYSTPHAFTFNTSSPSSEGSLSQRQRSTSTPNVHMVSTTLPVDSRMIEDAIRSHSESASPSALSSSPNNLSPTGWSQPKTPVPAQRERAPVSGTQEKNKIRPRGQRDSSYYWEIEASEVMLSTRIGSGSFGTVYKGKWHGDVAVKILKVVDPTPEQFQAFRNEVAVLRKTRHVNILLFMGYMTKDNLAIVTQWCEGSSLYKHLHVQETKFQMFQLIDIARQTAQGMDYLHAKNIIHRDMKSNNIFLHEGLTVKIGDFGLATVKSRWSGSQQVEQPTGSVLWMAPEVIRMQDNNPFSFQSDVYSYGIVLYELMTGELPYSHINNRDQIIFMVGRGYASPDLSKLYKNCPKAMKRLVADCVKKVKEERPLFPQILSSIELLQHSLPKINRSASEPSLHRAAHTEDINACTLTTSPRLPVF

[3] = tested on: pErk levels in HCT-116 (G13D KRas/WT Raf) cells; assay: LXH-254 titration, pErk western blot, HCT-116 cells
[4] = tested on: pErk levels in MDA-MB-453 cells (single encorafenib-occupied Raf dimers); assay: Encorafenib and LXH-254 cotreatment, pErk, MDA-MB-453 cells; conditions: encorafenib 1 h, then LXH-254 3 h
[5] = tested on: pErk levels in Mia Paca-2 cells (single encorafenib-occupied Raf dimers); assay: Encorafenib and LXH-254 cotreatment, pErk, Mia Paca-2 cells; conditions: encorafenib 1 h, then LXH-254 3 h
[6] = tested on: pErk levels in Mia PaCa-2 cells; assay: Raf inhibitor and Mek inhibitor cotreatments, pErk, Mia PaCa-2 cells
[7] = tested on: pErk levels in CIAR-293 cells; assay: Inhibitor titrations in CIAR-293 cells (pErk); conditions: A115 or DMSO 1 h, then LXH-254 3 h
[8] = tested on: pErk levels in HCT-116 cells (single encorafenib-occupied Raf dimers); assay: Encorafenib and LXH-254 cotreatment, pErk, HCT-116 cells; conditions: encorafenib 1 h, then LXH-254 3 h
[9] = tested on: pErk levels in MDA-MB-231 cells; assay: LXH-254 titration, pErk western blot, MDA-MB-231 cells; conditions: 4 h LXH-254 treatment
[10] = tested on: pErk levels in MDA-MB-453 cells; assay: LXH-254 titration, pErk western blot, MDA-MB-453 cells; conditions: 4 h LXH-254 treatment
[11] = tested on: pErk levels in MDA-MB-453 cells; assay: Bliss synergy analysis of cobimetinib/LXH-254 pErk titration data, MDA-MB-453 cells; conditions: combination with LXH-254, MDA-MB-453 cells, p < 0.05
[12] = tested on: pMek levels in mutant KRas-expressing lines; assay: pMek levels in mutant KRas-expressing cell lines treated with Mek inhibitors; conditions: multiple mutant KRas-expressing lines, 4 h
[13] = molecular target: high-affinity Raf:Mek interactions (Homo sapiens, UniProt Q02750); assay: Co-immunoprecipitation of Raf with Mek from Mia PaCa-2 cells treated with partial inhibitory doses of Mek inhibitors; conditions: 4 h
Sequence of high-affinity Raf:Mek interactions (Q02750 whole entry): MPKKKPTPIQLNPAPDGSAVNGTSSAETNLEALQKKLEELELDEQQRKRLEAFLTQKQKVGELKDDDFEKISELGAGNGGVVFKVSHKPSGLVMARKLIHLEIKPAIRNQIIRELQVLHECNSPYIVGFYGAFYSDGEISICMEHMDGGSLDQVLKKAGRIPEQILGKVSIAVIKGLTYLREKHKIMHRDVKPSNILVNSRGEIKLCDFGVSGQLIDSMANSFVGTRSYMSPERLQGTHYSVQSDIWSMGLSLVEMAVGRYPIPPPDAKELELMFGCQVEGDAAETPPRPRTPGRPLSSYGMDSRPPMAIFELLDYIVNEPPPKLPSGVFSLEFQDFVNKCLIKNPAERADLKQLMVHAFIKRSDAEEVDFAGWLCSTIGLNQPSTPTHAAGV

[14] = Mia Paca-2 cells, partial (~85%) inhibitory dose 1 h, then LXH-254 3 h

SMILES: CN(C)CC#Cc1ccc(OCCCc2sc(N3CCc4cccc(C(=O)Nc5nc6ccccc6s5)c4C3)nc2C(=O)O)c(F)c1 [A115]
pMek levels upon A115 treatment versus DMSO [1]: four-fold higher

LXH-254 concentrations at which ARaf was recruited into heterodimers with CRaf (ARaf:CRaf heterodimers): 10 to 50 µM
pErk IC50 ([3]; 4 h LXH-254 treatment): double-digit nanomolar
decrease in LXH-254 pErk IC50 after encorafenib pretreatment and washout [4]: ~ 20 fold
decrease in LXH-254 pErk IC50 after encorafenib pretreatment and washout [5]: ~ 30 fold
IC50 ([6]; Homo sapiens, MIA PaCa-2, read-out: LXH-254 pErk IC50, DMSO pretreatment): 590 nM
decrease in LXH-254 pErk IC50 after encorafenib pretreatment and washout [8]: 2-3 fold
pErk IC50 [9]: double-digit nanomolar
pErk IC50 [10]: micromolar
SMILES: Cc1ccc(NC(=O)c2ccnc(C(F)(F)F)c2)cc1-c1cc(OCCO)nc(N2CCOCC2)c1 [LXH-254]
decrease of pErk levels [2]: > 80%
treatment time at which maximal and stable inhibition of downstream signaling (pErk) was achieved ([3]; time course, 32 nM LXH-254, n=1): 4 h
change of pErk IC50 in A115-treated versus DMSO-treated CIAR-293 cells [7]: four-fold lower

effect on high-affinity Raf:Mek interactions [13]: disrupted
increase in LXH-254's potency (pErk IC50) after Mek inhibitor pretreatment [6, 14]: ~ 4 fold
SMILES: O=C(c1ccc(F)c(F)c1Nc1ccc(I)cc1F)N1CC(O)([C@@H]2CCCCN2)C1 [cobimetinib]
average Bliss score [11]: 8.72
effect on pMek (Mek activation) relative to DMSO [12]: greatly enhanced

effect on high-affinity Raf:Mek interactions [13]: promoted
effect of Mek inhibitor pretreatment on LXH-254 pErk IC50 / inhibitory activity [6, 14]: potently antagonizes
SMILES: CNS(=O)(=O)Nc1nccc(Cc2c(C)c3ccc(Oc4ncccn4)cc3oc2=O)c1F [CH5126766]
effect on pMek (Mek activation) relative to DMSO [12]: either reduced or minimally affected
